# From patent publication US12516016B2, “GPX4 inhibitors, pharmaceutical compositions thereof, and their use for treating GPX4-mediated diseases” (EUBULUS BIOTHERAPEUTICS (HONG KONG) LIMITED, priority 2020, dated 2026)
# Test system: hepatocellular carcinoma cell line Hub-7
# Test: Cell proliferation assay (CELL-TITER GLO cell viability)
# Format: cell-based
# Settings: 24 h, Hub-7 cells, 24 h incubation, read-out: Inhibition of Cell Proliferation EC50
# Procedure, shortened: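 […] cells (4,000/well) seeded overnight, then exposed 24 h to compound from 10 μM in 3-fold serial dilutions. Viability read by CELL-TITER GLO luminescence; EC50 values derived.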
row,Compound,EC50 [µM]
1,"C#CC(=O)N(c1cccc(Cl)c1)C1(C(=O)NCS(=O)(=O)c2ccc(C)cc2)CCOCC1 [A159, 4-(N-(3-Chlorophenyl)propiolamido)-N-(tosylmethyl)tetrahydro-2H-pyran-4-carboxamide]",0.5 to 2
2,"C#CC(=O)N(c1cccc(F)c1)C(C(=O)NCc1ccccc1)c1cccc(N)c1 (centres unmarked) [A43, N-(1-(3-Aminophenyl)-2-(benzylamino)-2-oxoethyl)-N-(3-fluorophenyl)-propiolamide]",0.1 to 0.5
3,"C#CC(=O)N(c1cccc(Cl)c1)C1(C(=O)NCc2ccccc2)CCC(C(=O)OC)CC1 (centres unmarked) [A79, Methyl 4-(benzylcarbamoyl)-4-(N-(3-chlorophenyl)propiolamido)-cyclohexane-carboxylate]",≤ 0.1
4,"C#CC(=O)N(c1ccc(OC)c(Cl)c1)C(C(=O)NCc1ccccc1)c1ccc(N)cc1 (centres unmarked) [A53, N-(1-(4-Aminophenyl)-2-(benzylamino)-2-oxoethyl)-N-(3-chloro-4-methoxy-phenyl)propiolamide]",≤ 0.1
5,"C#CC(=O)N(c1cccc(-c2cc[nH]n2)c1)C(C(=O)NCc1ccccc1)c1ccccc1 (centres unmarked) [A134, N-(3-(1H-Pyrazol-3-yl)phenyl)-N-(2-(benzylamino)-2-oxo-1-phenylethyl)-propiolamide]",≤ 0.1
6,"C=C(F)C(=O)N(c1cccc(Cl)c1)C(C(=O)NCc1ccccc1)c1ccc(N)cc1 (centres unmarked) [B3, N-(1-(4-Aminophenyl)-2-(benzylamino)-2-oxoethyl)-N-(3-chlorophenyl)-2-fluoroacrylamide]",> 10
7,"C#CC(=O)N(c1cccc(Cl)c1)C1(C(=O)NCc2ccccc2)CCCOC1 (centres unmarked) [A174, N-Benzyl-3-(N-(3-chlorophenyl)propiolamido)tetrahydro-2H-pyran-3-carboxamide]",≤ 0.1
8,"C#CC(=O)N(c1ccc(C(=O)OC)cc1)C(C(=O)NCc1ccccc1)c1cccc(N)c1 (centres unmarked) [A49, Methyl 4-(N-(1-(3-aminophenyl)-2-(benzylamino)-2-oxoethyl)propiolamido)-benzoate]",≤ 0.1
9,"Cn1ncc2cc(N(C(=O)CCBr)C3(C(=O)NCc4ccccc4)CCOCC3)ccc21 [D6, N-Benzyl-4-(3-bromo-N-(1-methyl-1H-indazol-5-yl)propanamido)tetrahydro-2H-pyran-4-carboxamide]",> 10
10,"C#CC(=O)N(c1cccc(Cl)c1)C(C(=O)NCc1ccccc1)C1CC1 (centres unmarked) [A72, N-(2-(benzylamino)-1-cyclopropyl-2-oxoethyl)-N-(3-chlorophenyl)propiolamide]",0.1 to 0.5
11,"C#CC(=O)N(c1ccc2c(c1)C(=O)OC2)C(C(=O)NCc1ccccc1)c1ccccc1 (centres unmarked) [A143, N-(2-(Benzylamino)-2-oxo-1-phenylethyl)-N-(3-oxo-1,3-dihydroisobenzofuran-5-yl)propiolamide]",≤ 0.1
12,"C#CC(=O)N(c1cccc(Cl)c1)C(C(=O)NCC1CC1)c1ccccc1 (centres unmarked) [A142, N-(3-Chlorophenyl)-N-(2-((cyclopropylmethyl)amino)-2-oxo-1-phenylethyl)-propiolamide]",≤ 0.1
13,"C#CC(=O)N(c1ccc(OC)c(Cl)c1)C(C(=O)NC(C)(C)C)c1ccc(N)cc1 (centres unmarked) [A3, N-(1-(4-Aminophenyl)-2-(tert-butylamino)-2-oxoethyl)-N-(3-chloro-4-methoxy-phenyl)propiolamide]",≤ 0.1
14,"C#CC(=O)N(c1cccc(Cl)c1)C(C(=O)NCc1ccccc1)c1ccc(N)cc1 (centres unmarked) [A32, N-(1-(4-Aminophenyl)-2-(benzylamino)-2-oxoethyl)-N-(3-chlorophenyl)-propiolamide]",≤ 0.1
15,"C#CC(=O)N(c1ccc2c(c1)ncn2C)C1(C(=O)NCc2ccccc2)CCOCC1 [A156, N-Benzyl-4-(N-(1-methyl-1H-benzo[d]imidazol-5-yl)propiolamido)tetrahydro-2H-pyran-4-carboxamide]",0.5 to 2
16,"C#CC(=O)N(c1cccc(C(=O)OC)c1)C(C(=O)NCc1ccccc1)c1ccc(N)cc1 (centres unmarked) [A54, Methyl 3-(N-(1-(4-aminophenyl)-2-(benzylamino)-2-oxoethyl)propiolamido)-benzoate]",≤ 0.1
17,"C#CC(=O)N(c1cccc(Cl)c1)C1(C(=O)NCC(=O)O)CCOCC1 [A192, 2-(4-(N-(3-Chlorophenyl)propiolamido)tetrahydro-2H-pyran-4-carboxamido)-acetic acid]",> 10
18,"CC(=O)Nc1cccc(N(C(=O)CCl)C(C(=O)NCCc2ccccc2)c2ccc([N+](=O)[O-])cc2)c1 (centres unmarked) [C11, N-(3-Acetamidophenyl)-2-chloro-N-(1-(4-nitrophenyl)-2-oxo-2-(phenethyl-amino)ethyl)acetamide]",2 to 10
19,"C#CC(=O)N(c1ccc2c(cnn2C)c1)C(C(=O)NCc1ccccc1)c1ccccc1 (centres unmarked) [A107, N-(2-(Benzylamino)-2-oxo-1-phenylethyl)-N-(1-methyl-1H-indazol-5-yl)-propiolamide]",≤ 0.1
20,"Nc1ccc(C(C(=O)NCCc2ccccc2)N(C(=O)CCl)c2cccc(Cl)c2)cc1 (centres unmarked) [C6, 2-chloro-N-(3-chlorophenyl)-N-(1-(4-aminophenyl)-2-oxo-2-(phenethylamino)ethyl)acetamide]",0.5 to 2

row,Compound,EC50 [µM]
1,"C#CC(=O)N(c1ccc(OC)c(Cl)c1)C(C(=O)NCc1ccccc1)c1ccccc1 (centres unmarked) [A93, N-(2-(Benzylamino)-2-oxo-1-phenylethyl)-N-(3-chloro-4-methoxyphenyl)-propiolamide]",≤ 0.1
2,"C#CC(=O)N(c1ccc2c(cnn2C)c1)C1(C(=O)NCc2ccccc2)CCCOC1 (centres unmarked) [A176, N-Benzyl-3-(N-(1-methyl-1H-indazol-5-yl)propiolamido)tetrahydro-2H-pyran-3-carboxamide]",≤ 0.1
3,"C#CC(=O)N(c1cccc(C#N)c1)C(C(=O)NCc1ccccc1)c1cccc(N)c1 (centres unmarked) [A38, N-(1-(3-Aminophenyl)-2-(benzylamino)-2-oxoethyl)-N-(3-cyanophenyl)-propiolamide]",0.1 to 0.5
4,"C#CC(=O)N(c1ccc(OC)cc1OC)C(C(=O)NCC(=O)OCC)c1cccs1 (centres unmarked) [A190, Ethyl 2-(2-(N-(2,4-dimethoxyphenyl)propiolamido)-2-(thiophen-2-yl)acetamido)-acetate]",0.5 to 2
5,"C#CC(=O)N(c1cccc(C(=O)OC)c1)C(C(=O)NCc1ccccc1)c1ccccc1 (centres unmarked) [A76, Methyl 3-(N-(2-(benzylamino)-2-oxo-1-phenylethyl)propiolamido)benzoate]",≤ 0.1
6,"COc1ccc(N(C(=O)CCl)C(C(=O)NCCc2ccccc2)c2ccc(NC(=O)CO)cc2)cc1Cl (centres unmarked) [C4, 2-chloro-N-(3-chloro-4-methoxyphenyl)-N-(1-(4-(2-hydroxyacetamido)phenyl)-2-oxo-2-(phenethylamino)ethyl)acetamide]",0.5 to 2
7,"COc1ccc(N(C(=O)CCl)C2(C(=O)NCCc3ccccc3)CCC(F)(F)CC2)cc1Cl [C20, 1-(2-Chloro-N-(3-chloro-4-methoxyphenyl)acetamido)-4,4-difluoro-N-phenethyl-cyclohexane-1-carboxamide]",0.1 to 0.5
8,"C#CC(=O)N(c1cccc2cnn(C)c12)C(C(=O)NCc1ccccc1)c1ccccc1 (centres unmarked) [A160, N-(2-(Benzylamino)-2-oxo-1-phenylethyl)-N-(1-methyl-1H-indazol-7-yl)propiolamide]",≤ 0.1
9,"C#CC(=O)N(c1ccc(S(N)(=O)=O)cc1)C(C(=O)NC(C)(C)C)c1ccc(N)cc1 (centres unmarked) [A11, N-(1-(4-Aminophenyl)-2-(tert-butylamino)-2-oxoethyl)-N-(4-sulfamoylphenyl)-propiolamide]",> 10
10,"Cn1ncc2cc(N(C(=O)CO)C3(C(=O)NCc4ccccc4)CCOCC3)ccc21 [D3, N-Benzyl-4-(2-hydroxy-N-(1-methyl-1H-indazol-5-yl)acetamido)tetrahydro-2H-pyran-4-carboxamide]",> 10
11,"CC(Cl)C(=O)N(c1ccc2c(cnn2C)c1)C1(C(=O)NCc2ccccc2)CCOCC1 (centres unmarked) [C24, N-Benzyl-4-(2-chloro-N-(1-methyl-1H-indazol-5-yl)propanamido)tetrahydro-2H-pyran-4-carboxamide]",> 10
12,"C#CC(=O)N(Cc1ccccc1)C(C(=O)NCc1ccccc1)c1cccc(N)c1 (centres unmarked) [A36, N-(1-(3-Aminophenyl)-2-(benzylamino)-2-oxoethyl)-N-benzylpropiolamide]",0.5 to 2
13,"C#CC(=O)N(c1cccc(Cl)c1)C1(C(=O)NCC(=O)Nc2ccccc2)CCOCC1 [A193, 4-(N-(3-Chlorophenyl)propiolamido)-N-(2-oxo-2-(phenylamino)ethyl)tetrahydro-2H-pyran-4-carboxamide]",0.1 to 0.5
14,"C=CC(=O)N(CCc1ccccc1)C1(C(=O)NCc2ccccc2)CCOCC1 [B6, N-Benzyl-4-(N-phenethylacrylamido)tetrahydro-2H-pyran-4-carboxamide]",> 10
15,"C#CC(=O)N(c1ccc2nncn2c1)C(C(=O)NCc1ccccc1)c1ccccc1 (centres unmarked) [A105, N-([1,2,4]Triazolo[4,3-a]pyridin-6-yl)-N-(2-(benzylamino)-2-oxo-1-phenylethyl)-propiolamide]",0.1 to 0.5
16,"C#CC(=O)N(c1cccn2cnnc12)C(C(=O)NCc1ccccc1)c1ccccc1 (centres unmarked) [A147, N-([1,2,4]Triazolo[4,3-a]pyridin-8-yl)-N-(2-(benzylamino)-2-oxo-1-phenylethyl)-propiolamide]",0.1 to 0.5
17,"C#CC(=O)N(c1ccc(O)cc1)C(C(=O)NCc1ccccc1)c1cccc(N)c1 (centres unmarked) [A45, N-(1-(3-Aminophenyl)-2-(benzylamino)-2-oxoethyl)-N-(4-hydroxyphenyl)-propiolamide]",2 to 10
18,"C#CC(=O)N(c1cccc2nsnc12)C(C(=O)NCc1ccccc1)c1ccccc1 (centres unmarked) [A85, N-(Benzo[c][1,2,5]thiadiazol-4-yl)-N-(2-(benzylamino)-2-oxo-1-phenylethyl)-propiolamide]",≤ 0.1
19,"C#CC(=O)N(Cc1cc[nH]n1)C1(C(=O)NCc2ccccc2)CCOCC1 [A137, 4-(N-((1H-Pyrazol-3-yl)methyl)propiolamido)-N-benzyltetrahydro-2H-pyran-4-carboxamide]",> 10
20,"C#CC(=O)N(c1cccc(Cl)c1)C(C(=O)NCc1ccccc1C#N)c1ccccc1 (centres unmarked) [A178, N-(3-Chlorophenyl)-N-(2-((2-cyanobenzyl)amino)-2-oxo-1-phenylethyl)-propiolamide]",≤ 0.1

# Same assay, conditions: Hub-7 cells, 24 h incubation, read-out: Inhibition of Cell Proliferation EC50
row,Compound,EC50 [µM]
1,"C#CC(=O)N(c1cccc(C(=O)OC)c1)C(C(=O)NC(C)(C)C)c1ccc(N)cc1 (centres unmarked) [A28, Methyl 3-(N-(1-(4-aminophenyl)-2-(tert-butylamino)-2-oxoethyl)-propiolamido)-benzoate]",0.1 to 0.5
